# Assays:
# hTGR5 = target: T1, hTGR5 (Homo sapiens, UniProt Q8TDU6); assay: TGR5/CRE Luciferase Assay (hTGR5); type: cell-based; settings: for EC50: HEK 293 cells co-transfected with pCMV tag4b-TGR5h and pCRE TA-Luciferase, overnight incubation; for hTGR5 % trans: percentage of the 10 μM LCA value, HEK 293 cells transfected with hTGR5
# T1 construct: expressed in transfected cells; host or cells: HEK293 cells, transiently co-transfected with the pCRE TA-Luciferase reporter
# T1 sequence (Q8TDU6 1-330): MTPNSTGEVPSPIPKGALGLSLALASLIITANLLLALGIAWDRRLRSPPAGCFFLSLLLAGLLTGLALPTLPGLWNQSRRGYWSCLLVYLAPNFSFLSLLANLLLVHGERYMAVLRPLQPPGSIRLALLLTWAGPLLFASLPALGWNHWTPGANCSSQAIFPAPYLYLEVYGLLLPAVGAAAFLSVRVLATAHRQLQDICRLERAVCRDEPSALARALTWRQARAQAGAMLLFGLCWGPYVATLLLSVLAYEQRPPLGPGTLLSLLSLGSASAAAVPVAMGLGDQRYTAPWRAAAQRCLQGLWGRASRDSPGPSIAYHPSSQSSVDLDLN
# How it was run: (§1)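 cAMP-dependent luciferase luminescence was measured after overnight compound exposure (duplicate concentration series) and fitted to a four-parameter logistic equation. Cells: HEK293 transiently co-expressing hTGR5 or mTGR5 with a CRE reporter; lithocholic acid at 10 μM was the reference agonist.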
# mTGR5 = target: T2, mTGR5 (Mus musculus, UniProt Q80SS6); assay: TGR5/CRE Luciferase Assay (mTGR5); type: cell-based; settings: for EC50: HEK 293 cells co-transfected with pCMV AC6-TGR5m and pCRE TA-Luciferase, overnight incubation; for mTGR5 % trans: percentage of the 10 μM LCA value, HEK 293 cells transfected with mTGR5
# T2 construct: expressed in transfected cells; host or cells: HEK293 cells, transiently co-transfected with the pCRE TA-Luciferase reporter
# T2 sequence (Q80SS6 1-329): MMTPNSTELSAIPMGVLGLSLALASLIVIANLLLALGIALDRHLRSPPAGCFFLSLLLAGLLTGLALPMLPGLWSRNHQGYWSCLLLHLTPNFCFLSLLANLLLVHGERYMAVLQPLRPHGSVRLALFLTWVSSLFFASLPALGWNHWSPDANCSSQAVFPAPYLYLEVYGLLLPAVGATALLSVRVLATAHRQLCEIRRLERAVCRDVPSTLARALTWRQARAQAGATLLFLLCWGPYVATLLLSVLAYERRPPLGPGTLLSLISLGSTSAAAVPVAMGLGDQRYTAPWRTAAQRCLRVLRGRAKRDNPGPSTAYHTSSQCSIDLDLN
# How it was run: as §1
SMILES,EC50 (hTGR5) [nM],hTGR5 % trans (hTGR5) [%],EC50 (mTGR5) [nM],mTGR5 % trans (mTGR5) [%]
"CC1=C(C(=O)OCc2ccc(OCCCS(=O)(=O)O)cc2)[C@H](c2ccc(Cl)nc2)CC(=O)N1C[C@H]1CCCO1.N [Example 166, Ammonium,3-[4-[[(4S)-4-(6-chloro-3-pyridyl)-6-methyl-2-oxo-1-[[(2R)-tetrahydrofuran-2-yl]methyl]-3,4-dihydropyridine-5-carbonyl]oxymethyl]phenoxy]propane-1-sulfonate]",160,103,100,113
"CC1=C(C(=O)OCc2ccccc2)C(c2ccc(Cl)cc2)CC(=O)N1Cc1ccccc1 (stereo not drawn) [Compound 41, Benzyl 1-benzyl-4-(4-chlorophenyl)-6-methyl-2-oxo-3,4-dihydropyridine-5-carboxylate]",1300,55,1200,55
"CC1=C(C(=O)OCc2ccccc2)C(c2ccc(Cl)cc2)CC(=O)N1CCN1CCCC1 (stereo not drawn) [Compound 55, Benzyl 4-(4-chlorophenyl)-6-methyl-2-oxo-1-(2-pyrrolidin-1-ylethyl)-3,4-dihydropyridine-5-carboxylate]",4500,47,–,5
"COCCOc1ccc(COC(=O)C2=C(C)N(C[C@@H]3CCCO3)C(=O)C[C@H]2c2ccc(Cl)cc2)cc1 (racemic) [Example 147, [4-(2-methoxyethoxy)phenyl]methyl (4S)-4-(4-chlorophenyl)-6-methyl-2-oxo-1-[[(2S)-tetrahydrofuran-2-yl]methyl]-3,4-dihydropyridine-5-carboxylate and [4-(2-methoxyethoxy)phenyl]methyl (4R)-4-(4-chlorophenyl)-6-methyl-2-oxo-1-[[(2R)-tetrahydrofuran-2-yl]methyl]-3,4-dihydropyridine-5-carboxylate]",190,77,450,112
"CN1C=C(C(=O)N(C)Cc2ccccc2)C(c2ccc(Cl)cc2)CC1=O (stereo not drawn) [Compound 33a, N-benzyl-4-(4-chlorophenyl)-N,1-dimethyl-2-oxo-3,4-dihydropyridine-5-carboxamide]",39000,37,1100,16
"CC1=C(C(=O)OCc2ccccc2)C(c2ccc(Cl)cc2)CC(=O)N1CC1CCC1 (stereo not drawn) [Compound 44, Benzyl 4-(4-chlorophenyl)-1-(cyclobutylmethyl)-6-methyl-2-oxo-3,4-dihydropyridine-5-carboxylate]",300,59,400,77
"COCCN1C(=O)CC(c2ccc(Cl)cc2)C(C(=O)OCCc2ccccc2)=C1C (stereo not drawn) [Example 110, 2-phenylethyl 4-(4-chlorophenyl)-1-(2-methoxyethyl)-6-methyl-2-oxo-3,4-dihydropyridine-5-carboxylate]",2300,50,1600,42
"COCCN1C(=O)CC(c2ccncc2)C(C(=O)OCc2ccccc2OC)=C1C (stereo not drawn) [Example 133, (2-methoxyphenyl)methyl 1-(2-methoxyethyl)-6-methyl-2-oxo-4-(4-pyridyl)-3,4-dihydropyridine-5-carboxylate]",8600,72,4900,83
"COc1ccc(COC(=O)C2=C(C)N(C)C(=O)CC2c2ccc(Cl)cc2)cc1OC (stereo not drawn) [Example 83, (3,4-dimethoxyphenyl)methyl 4-(4-chlorophenyl)-1,6-dimethyl-2-oxo-3,4-dihydropyridine-5-carboxylate]",1200,69,400,88
"COc1ccccc1COC(=O)C1=C(C)N(C[C@H]2CCCO2)C(=O)C[C@H]1c1ccc(Cl)c(Cl)c1 (racemic) [Example 149, (2-methoxyphenyl)methyl (4S)-4-(3,4-dichlorophenyl)-6-methyl-2-oxo-1-[[(2R)-tetrahydrofuran-2-yl]methyl]-3,4-dihydropyridine-5-carboxylate and (2-methoxyphenyl)methyl (4R)-4-(3,4-dichlorophenyl)-6-methyl-2-oxo-1-[[(2S)-tetrahydrofuran-2-yl]methyl]-3,4-dihydropyridine-5-carboxylate]",20,91,70,89
"COc1ccccc1COC(=O)C1=C(C)N(C[C@H]2CCCO2)C(=O)C[C@@H]1c1ccc(Cl)nc1 [Example 165, (2-M ethoxyphenyl)methyl-(4R)-4-(6-chloro-3-pyridyl)-6-methyl-2-oxo-1-[[(2R)-tetrahydrofuran-2-yl]methyl]-3,4-dihydropyridine-5-carboxylate]",130,99,–,71
"COc1ccccc1COC(=O)C1=C(C)N(C[C@H]2CCCO2)C(=O)C[C@H]1c1ccc2nsnc2c1 (racemic) [Example 152, (2-Methoxyphenyl)methyl (4S)-4-(2,1,3-benzothiadiazol-5-yl)-6-methyl-2-oxo-1-[[(2R)-tetrahydrofuran-2-yl]methyl]-3,4-dihydropyridine-5-carboxylate and (2-methoxyphenyl)methyl (4R)-4-(2,1,3-benzothiadiazol-5-yl)-6-methyl-2-oxo-1-[[(2S)-tetrahydrofuran-2-yl]methyl]-3,4-dihydropyridine-5-carboxylate]",30,106,48,66
"CC1=C(C(=O)OCc2ccccc2)C(c2ccc(Cl)cc2)CC(=O)N1CCCN(C)C (stereo not drawn) [Compound 54, Benzyl 4-(4-chlorophenyl)-1-[3-(dimethylamino)propyl]-6-methyl-2-oxo-3,4-dihydropyridine-5-carboxylate]",4200,10,–,0
"COCCN1C(=O)CC(c2ccc(Cl)cc2)C(C(=O)OCc2cccc(C(=O)OC)c2)=C1C (stereo not drawn) [Example 96, (3-methoxycarbonylphenyl)methyl 4-(4-chlorophenyl)-1-(2-methoxyethyl)-6-methyl-2-oxo-3,4-dihydropyridine-5-carboxylate]",1100,63,600,83
"C=CCN1C(=O)CC(c2ccc(Cl)cc2)C(C(=O)OCc2ccccc2)=C1C (stereo not drawn) [Compound 38, Benzyl 1-allyl-4-(4-chlorophenyl)-6-methyl-2-oxo-3,4-dihydropyridine-5-carboxylate]",1100,75,1500,54

# From US9932309B2, “2-oxo-3,4-dihydropyridine-5-carboxylates and their use” (UNIVERSITE DE LILLE 2 DROIT ET SANTE, priority 2014, dated 2018)
